# Starred links: 1 amine or outer side, 2 acyl side, 3 side chain; linkers in the order of their positions; H or OH if unused. Positions of bridges follow the written chain, without caps; N, C: chain ends. Residues, ends and D or L forms follow the SMILES beside them. Chains are numbered I, II in the order given. *: point of attachment. FITC = O=C1OC2(c3ccc(O)cc3Oc3cc(O)ccc32)c2ccc(NC(=S)*)cc21; X1 = c1cc(C[*:1])ccc1COCc1ccc(C[*:2])cc1; βAla = NCCC(=O)O
# Columns and labels:
# [1] = target: T1, recombinant human MYC^353–437 protein (His6-MYC^353–437) (Homo sapiens, UniProt P01106); test: Fluorescence polarization direct binding of fluorescein-labeled CHDs to His6-MYC353-437; details: FP direct binding; 15 nM FITC-labeled peptide; His6-MYC serial dilutions from 10 μM; 1X PBS, 1 mM DTT, 5% glycerol, 0.1% pluronic acid, pH 6.7; 25 °C; triplicate; MYC aggregates above 5 μM; read-out: Binding Affinity MYC^353-436, Kd
# T1 construct: recombinant human MYC^353–437 protein; made in house; host or cells: E. coli BL21(DE3), pET151-D-TOPO-cMyc vector
# Method: pET151-D-TOPO-cMyc vector was kindly provided by Dr. Edward Prochownik from the
# Department of Pediatrics at UPMC Children’s Hospital of Pittsburgh. Expression and purification
# of Myc353-437 were performed using an established protocol with minor modifications.7 BL21(DE3)
# cells were used to express recombinant Myc353-437 protein. Bacteria were grown at 37 °C to OD600
# of 0.8 followed by 1 mM IPTG induction and 16-18h growth at RT. Cells were harvested via
# centrifugation at 4,000 rpm at 4 °C and the pellet was resuspended in 10 mL of lysis buffer (8 M
# urea, 100 mM NaH2PO4, 10 mM Tris HCl, pH 8) supplemented with protease inhibitor cocktail
# (PierceTM Protease Inhibitor Tablets) and benzonase nuclease. Suspensions were sonicated on
# ice using a Branson Cell Disruptor 200 and centrifuged at 12,000 rpm for 45 min at 4 °C. Clarified
# lysate was applied to a column containing pre-equilibrated HisPur Ni-NTA Superflow Agarose
# (ThermoFisher Scientific) for overnight at 4 °C. The resin beads were washed with 10 mL of
# additional lysis buffer followed by three washes of 10 mL wash buffer (8 M urea, 100 mM
# NaH2PO4, 10 mM Tris HCl, 10 mM imidazole). The target protein was eluted with elution buffer (8
# M urea, 100 mM NaH2PO4, 10 mM Tris HCl, 250 mM imidazole) and buffer exchanged into 150
# mM NaCl, 50 mM Tris HCl, 5% glycerol, pH 6.7. Protein was concentrated by ultra-filtration (3000
# MWCO; Amicon Ultra-15 Centrifugal Filter units from EMD Millipore) followed by TEV cleavage
# (1:100 w/w of protease to target protein) in 150 mM NaCl, 50 mM Tris HCl, 5% glycerol, pH 6.7
# for 24 hrs at 4 °C. The cleaved protein is further purified by reverse-phase HPLC (gradient 10-60
# acetonitrile/water with 0.1% TFA over 35 min) to remove TEV protease and un-cleaved protein.
# Purified Myc353-437 was lyophilized and stored at -20 °C. Myc353-437 identity was characterized by
# (§1) Fluorescence Polarization Binding Assay
# (§2) The relative affinities of FITC-CHDMax-1 to His6-Myc353-436 and full-length His6-Max were
# (§3) determined using fluorescence polarization-based direct binding assay. The polarization
# (§4) experiments were performed using a DTX 880 Multimode Detector (Beckman) at 25 °C with
# (§5) excitation and emission wavelengths of 485 and 525 nm, respectively. Each polarization
# (§6) experiment was performed in a 96-well round bottom plate (Greiner) in assay buffer: 1X PBS, 1
# (§7) mM DTT, 5% glycerol, 0.1% pluronic acid, pH 6.7. The binding affinity (KD) values reported for
# (§8) each peptide are from experiments performed in triplicate. Raw values were fit to a sigmoidal
# (§9) dose-response nonlinear regression model in GraphPad Prism 6.0.
# (§10) All binding experiments with FITC-labeled peptides to His6-Myc353-436 or His6-Max were performed
# (§11) under the same conditions. Briefly, serial dilutions of His6-Myc353-436 and His6-Max were made
# (§12) from 10 μM into 15 nM of FITC-labeled peptide in assay buffer. KD was determined using the
# (§13) KD1 = (RT*(1-FSB) + LST*FSB2)/FSB-LST
# (§14) RT = Total concentration of His6-Myc353-436 or His6-Max
# (§15) LST = Total concentration of FITC-labeled peptide
# (§16) FSB = Fraction of bound FITC-labeled peptide
# [2] = target: T2, full-length His6-Max (MAX^1-160) (Homo sapiens, UniProt P61244); test: Fluorescence polarization direct binding to His6-MAX; details: FP direct binding; 15 nM FITC-labeled peptide; His6-MAX from 10 μM; 1X PBS, 1 mM DTT, 5% glycerol, 0.1% pluronic acid, pH 6.7; 25 °C
# T2 construct: N.B. (MAX^1-160)
# Method: as §1, §2, §3, §4, §5, §6, §7, §8, §9, §10, §11, §12, §13, §14, §15, §16
# T1 sequence (P01106 368-452): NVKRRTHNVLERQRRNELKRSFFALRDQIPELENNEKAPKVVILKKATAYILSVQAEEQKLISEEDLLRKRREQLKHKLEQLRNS
# T2 sequence (P61244 whole entry): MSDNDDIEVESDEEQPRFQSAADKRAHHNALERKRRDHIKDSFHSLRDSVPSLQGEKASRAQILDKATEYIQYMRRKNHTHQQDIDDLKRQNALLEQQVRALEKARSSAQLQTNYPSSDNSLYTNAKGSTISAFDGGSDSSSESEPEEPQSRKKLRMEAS
SMILES,Kd [1] [nM],"CHD^Max-1 Binding Affinity, Kd (MAX^1-160) [2]"
CC[C@H](C)[C@H](NC(=O)[C@H](CCC(=O)O)NC(=O)[C@H](Cc1c[nH]c2ccccc12)NC(=O)[C@H](CCC(N)=O)NC(=O)[C@H](C)NC(=O)[C@@H](NC(=O)[C@H](CCC(=O)O)NC(=O)[C@H](C)NC(=O)[C@H](CCCCN)NC(=O)[C@H](CCCNC(=N)N)NC(=O)[C@H](CCCNC(=N)N)NC(=O)[C@H](CC(C)C)NC(C)=O)[C@@H](C)O)C(=O)N[C@@H](CCC(=O)O)C(=O)N[C@@H](CCC(=O)O)C(=O)N[C@@H](CC(C)C)C(=O)N[C@@H](CSCc1ccc(COCc2ccc(CSC[C@H](NC(=O)[C@H](Cc3c[nH]c4ccccc34)NC(=O)[C@H](CCC(N)=O)NC(=O)[C@H](CC(C)C)NC(=O)[C@@H](NC(=O)[C@H](C)NC(=O)[C@H](C)NC(=O)[C@H](CCCCN)NC(=O)[C@H](CCC(=O)O)NC(=O)[C@H](CCCNC(=N)N)NC(=O)[C@H](CC(C)C)NC(=O)CCNC(=S)Nc3ccc4c(c3)C(=O)OC43c4ccc(O)cc4Oc4cc(O)ccc43)[C@@H](C)O)C(=O)N[C@H](C(=O)N[C@@H](CCC(=O)O)C(=O)N[C@@H](CCC(=O)O)C(=O)N[C@@H](CC(C)C)C(=O)N[C@@H](CCCNC(=N)N)C(=O)N[C@@H](CCCCN)C(N)=O)[C@@H](C)CC)cc2)cc1)C(N)=O [FITC–CHD^Max-3] (I: {FITC-βAla}-LREKAATLQWCIEELRK-NH2 / II: Ac-LRRKAETAQWEIEELC-NH2; linker I:11-II:16 via X1),> 5000,
CC[C@H](C)[C@H](NC(=O)[C@H](CCCCN)NC(=O)[C@H](CCC(=O)O)NC(=O)[C@H](CCCNC(=N)N)NC(=O)[C@H](CC(C)C)NC(C)=O)C(=O)N[C@@H](C)C(=O)N[C@H](C(=O)N[C@@H](CC(C)C)C(=O)N[C@@H](CCC(N)=O)C(=O)N[C@@H](Cc1c[nH]c2ccccc12)C(=O)N[C@@H](CSCc1ccc(COCc2ccc(CSC[C@H](NC(=O)[C@H](CC(C)C)NC(=O)[C@H](CCC(=O)O)NC(=O)[C@H](CCCNC(=N)N)NC(=O)[C@@H](NC(=O)[C@H](CCCNC(=N)N)NC(=O)[C@H](Cc3c[nH]c4ccccc34)NC(=O)[C@H](CCC(N)=O)NC(=O)[C@H](Cc3c[nH]cn3)NC(=O)[C@@H](NC(=O)[C@H](CCC(=O)O)NC(=O)[C@@H](NC(=O)[C@H](CCCNC(=N)N)NC(=O)[C@H](C)NC(=O)[C@H](CCC(=O)O)NC(=O)[C@H](CC(C)C)NC(C)=O)[C@@H](C)CC)[C@@H](C)O)[C@@H](C)CC)C(=O)N[C@@H](CCC(=O)O)C(N)=O)cc2)cc1)C(=O)N[C@H](C(=O)N[C@@H](CCC(=O)O)C(=O)N[C@@H](CCC(=O)O)C(=O)N[C@@H](CC(C)C)C(=O)N[C@@H](CCCNC(=N)N)C(=O)N[C@@H](CCCCN)C(N)=O)[C@@H](C)CC)[C@@H](C)O [CHD^Max-2] (I: Ac-LEARIETHQWRIRELCE-NH2 / II: Ac-LREKIATLQWCIEELRK-NH2; linker I:16-II:11 via X1),880 ± 53,
CC[C@H](C)[C@H](NC(=O)[C@H](CCC(=O)O)NC(=O)[C@H](Cc1c[nH]c2ccccc12)NC(=O)[C@H](CCC(N)=O)NC(=O)[C@H](C)NC(=O)[C@@H](NC(=O)[C@H](CCC(=O)O)NC(=O)[C@H](C)NC(=O)[C@H](CCCCN)NC(=O)[C@H](CCCNC(=N)N)NC(=O)[C@H](CCCNC(=N)N)NC(=O)[C@H](CC(C)C)NC(C)=O)[C@@H](C)O)C(=O)N[C@@H](CCC(=O)O)C(=O)N[C@@H](CCC(=O)O)C(=O)N[C@@H](CC(C)C)C(=O)N[C@@H](CSCc1ccc(COCc2ccc(CSC[C@H](NC(=O)[C@H](Cc3c[nH]c4ccccc34)NC(=O)[C@H](CCC(N)=O)NC(=O)[C@H](CC(C)C)NC(=O)[C@@H](NC(=O)[C@H](C)NC(=O)[C@H](C)NC(=O)[C@H](CCCCN)NC(=O)[C@H](CCC(=O)O)NC(=O)[C@H](CCCNC(=N)N)NC(=O)[C@H](CC(C)C)NC(C)=O)[C@@H](C)O)C(=O)N[C@H](C(=O)N[C@@H](CCC(=O)O)C(=O)N[C@@H](CCC(=O)O)C(=O)N[C@@H](CC(C)C)C(=O)N[C@@H](CCCNC(=N)N)C(=O)N[C@@H](CCCCN)C(N)=O)[C@@H](C)CC)cc2)cc1)C(N)=O [CHD^Max-3] (I: Ac-LREKAATLQWCIEELRK-NH2 / II: Ac-LRRKAETAQWEIEELC-NH2; linker I:11-II:16 via X1),> 5000,
CC[C@H](C)[C@H](NC(=O)[C@H](CCCCN)NC(=O)[C@H](CCC(=O)O)NC(=O)[C@H](CCCNC(=N)N)NC(=O)[C@H](CC(C)C)NC(=O)CCNC(=S)Nc1ccc2c(c1)C(=O)OC21c2ccc(O)cc2Oc2cc(O)ccc21)C(=O)N[C@@H](C)C(=O)N[C@H](C(=O)N[C@@H](CC(C)C)C(=O)N[C@@H](CCC(N)=O)C(=O)N[C@@H](Cc1c[nH]c2ccccc12)C(=O)N[C@@H](CSCc1ccc(COCc2ccc(CSC[C@H](NC(=O)[C@H](CC(C)C)NC(=O)[C@H](CCC(=O)O)NC(=O)[C@H](CCC(=O)O)NC(=O)[C@@H](NC(=O)[C@H](CCC(=O)O)NC(=O)[C@H](Cc3c[nH]c4ccccc34)NC(=O)[C@H](CCC(N)=O)NC(=O)[C@H](Cc3c[nH]cn3)NC(=O)[C@@H](NC(=O)[C@H](CCC(=O)O)NC(=O)[C@H](CC(N)=O)NC(=O)[C@H](CCCCN)NC(=O)[C@H](CCCNC(=N)N)NC(=O)[C@H](CCCNC(=N)N)NC(=O)[C@H](CC(C)C)NC(C)=O)[C@@H](C)O)[C@@H](C)CC)C(N)=O)cc2)cc1)C(=O)N[C@H](C(=O)N[C@@H](CCC(=O)O)C(=O)N[C@@H](CCC(=O)O)C(=O)N[C@@H](CC(C)C)C(=O)N[C@@H](CCCNC(=N)N)C(=O)N[C@@H](CCCCN)C(N)=O)[C@@H](C)CC)[C@@H](C)O [FITC–CHD^Max-1] (I: {FITC-βAla}-LREKIATLQWCIEELRK-NH2 / II: Ac-LRRKNETHQWEIEELC-NH2; linker I:11-II:16 via X1),350 ± 17,no binding was observed
